Columns and labels:
[1] = system: wild type Drosophila larvae; assay: Drosophila larval survival to adulthood (eclosion), drug with and without IR, wild type; assay type: in vivo; details: for effect on the killing effect of radiation (+IR versus +both): wild type
Method: (§1) To validate the identification of Bouvardin from the primary screen, the effect of this molecule on Drosophila larvae alone or in combination with radiation were assessed (FIG. 12). The screen was performed using irradiated mutant larvae. Hits from the screen were defined as those that reduced the survival of IRRADIATED larvae compared to the population of drugs being tested (approximately 80 molecules at a time) or compared to DMSO controls in the re-test. A hit could therefore act by enhancing the effect of radiation, or by simply killing larvae as a single agent, or both. To distinguish among these possibilities, hits from the screen were re-tested against larvae with and without irradiation.
(§2) In FIG. 12 survival after each treatment is expressed as the fraction of animals that emerged (“eclosed”) as viable adults. The averages have been normalized to the average fraction eclosed in no IR/drug control for the respective genotype. Error bars extend beyond fractional survival of 1.0 simply because of normalization. (A-C) Fraction eclosed for WT and grp and p53 mutants at 16 uM of Bouvardin, with and without IR. The data are averages of 3-8 biological replicates per sample. Dotted line on each graph denotes expected ‘fraction eclosed’ if drug and IR act additively. IR doses were 4000R for WT and grp and 3000R for p53 because of the higher radiation sensitivity of the latter. (D) Fraction eclosed for Minute mutants and yw controls after exposure to 0 (−IR) and 2000R (+IR) of X-rays. N ranged from 86-207 per genotype per treatment, in 3 biological replicates per sample. *=p<0.01; **=<0.001. 100R=1Gy. Error bar=1 standard deviation.
The activity of Bouvardin in Drosophila alone or in combination with ionizing radiation (IR) was assessed. Drug concentrations of 10-20 μM were used to approximate the conditions of the original screen. Third instar larvae were irradiated and cultured on medium containing drug. The survival of larvae was quantified 10 days later by measuring the rate of eclosion into adulthood. […] For example, IR alone reduces the eclosion of p53 mutants to 0.63±0.05 and 10 μM of drug reduces it to 0.82±0.15. The combination of Bouvardin and IR reduces eclosion to 0.49, nearly the exact number expected (0.63±0.05×0.82±0.15=0.51±0.10) if the two treatments produced an additive effect. The expected eclosion for additive effect of drug and radiation are denoted with a white dotted line in each graph.
Wild type flies were of the Sevelin stock. Mutants have been described before. p535A-1-4 results from targeted deletion of the gene, and is maintained and used as homogygotes. grpl (Chk1 mutants) results from a p-element insertion and is a genetic null. Homozygotes of the latter were identified by the lack of GFP marker on the balancer chromosome. Minute mutants were of the genotypes y[1]w[*]; P[w[+mC]=lacW]RpS131/CyO and P[lacW]RpL36G0471 w67c23/FM7a. Because Minute mutants were in yw or w background, y1w1 (Bloomington stock #1495) was used as ‘wild type’ control in these experiments.
Feeding stage 3rd instar larvae were irradiated as previously described (2). Briefly, 120 hr old larvae were rinsed to remove food and passed through sizing sieves to obtain animals of uniform size. Larvae were placed in a Petri dish and irradiated using a TORREX X-ray generator, set at 115 kV and 5 mA (producing 2.4 Rads/sec or 1.44 Gy/min) Irradiated larvae were then cultured on cornmeal-agar media (2) containing drug or DMSO carrier. […]

[2] = system: grp (Chk1) mutant Drosophila larvae; assay: Drosophila larval survival to adulthood (eclosion), drug with and without IR, grp (Chk1) mutants; assay type: in vivo; details: for manner in which drug and radiation act together: grp (Chk1) mutants
Method: as §1, §2
The activity of Bouvardin in Drosophila alone or in combination with ionizing radiation (IR) was assessed. Drug concentrations of 10-20 μM were used to approximate the conditions of the original screen. Third instar larvae were irradiated and cultured on medium containing drug. The survival of larvae was quantified 10 days later by measuring the rate of eclosion into adulthood. […]

Det562 cells = assay: CellTiter-Glo Luminescent Cell Viability Assay, Bouvardin with Taxol, Det562; assay type: cell-based, human; details: Det562
FaDu cells = assay: CellTiter-Glo Luminescent Cell Viability Assay, Bouvardin with Taxol, FaDu; assay type: cell-based, human
Method: “Combination Index” computation. Combination Indices were calculated using CalcuSyn software (Biosoft), which uses the method of Chou and Talalay. This method first computes drug-induced effect using the Hill Equation: where E is the measured effect; C is the drug concentration; Emax is the full range of drug effect, usually at or near 100%; IC50 is the drug concentration producing the median effect of 50%; and n is the curve shape parameter describing the steepness of the concentration-effect relationship. The Chou and Talalay method then linearizes the Hill Equation by logarithmic transformation as: where fu is the fraction of cells left unaffected after drug exposure, fa is the fraction of cells affected by the exposure, C is the drug concentration used, Cm is the concentration to achieve the median effect, and n is the curve shape parameter. Cm and n are equivalent to IC50 and n, respectively, in the Hill Equation. The values of n (obtained from the slope), nlog(Cm) (obtained from the absolute value of the intercept), and, therefore, Cm are obtained by plotting log(fu−1−1) versus log(C). […]
The growth inhibitory effects of Bouvardin with Taxol were evaluated using CellTiter-Glo® Luminescent Cell Viability Assay (Promega G7570). […] Luminescence of each well was measured using an automated plate reader.

Drosophila = assay: Sensitizing flies to ionizing radiation (FIG. 7); assay type: in vivo
Text: Bouvardin derivatives are depicted in FIG. 4 as a generic Formula III, with the specific derivative used in this example having R1=COOCH3, R2=OCH3, R3=H, R4=Boc, R5=CH3.
Feeding stage 3rd instar larvae were irradiated as previously described (2). Briefly, 120 hr old larvae were rinsed to remove food and passed through sizing sieves to obtain animals of uniform size. Larvae were placed in a Petri dish and irradiated using a TORREX X-ray generator, set at 115 kV and 5 mA (producing 2.4 Rads/sec or 1.44 Gy/min) Irradiated larvae were then cultured on cornmeal-agar media (2) containing drug or DMSO carrier. In all experiments using human cells, cells in 96-well plates were irradiated with a RS2000 Biological Irradiator (Rad Source Technologies, Inc.) delivering 1 Gy/min.

For COc1ccc(C[C@H]2C(=O)N[C@H](C)C(=O)N(C)[C@@H]3C(=O)N(C)[C@@H](Cc4ccc(O)c(c4)Oc4ccc(cc4)[C@H]3O)C(=O)N[C@@H](C)C(=O)N[C@H](C)C(=O)N2C)cc1 (stereo in doubt) [Bouvardin, bouvardin], the “effect on the killing effect of radiation (+IR versus +both)” value (shortened to “effect … (+IR versus +both)”) [1] was “not wild type”, the “effect of drug alone on survival to adulthood” value ([1]; wild type flies, bouvardin up to 100 μM, no IR) was “very little effect” and the “effect … (+IR versus +both)” value ([1]; listed as bouvardin) was “did not significantly reduce survival to adulthood”. For the same compound, the “manner in which drug and radiation act together” value [2] was “synergistic manner”, the “manner in which drug and radiation act together” value ([2]; listed as bouvardin) was “appear to synergize” and the “effect … (+IR versus +both)” value ([2]; grp mutants, drug 10-20 μM) was “increased the killing effect of radiation in a statistically significant manner”. The “interaction of Bouvardin with Taxol” value (Det562 cells) was “synergy with Taxol over a wide range of concentrations”, the “Bouvardin concentration up to which synergy was seen when combined with taxol” value (FaDu cells; Det562 and FaDu (FIG. 18)) was “up to 0.3 μM” and the “interaction of Bouvardin with Taxol” value (FaDu cells; FaDu) was “synergy with Taxol over a wide range of concentrations”. The “observed effect of drug with radiation versus additive effect” value (Drosophila) was “exceeds additive effect of drug and radiation”.

Source: patent US20150343016A1, “CHEMICAL ENTITIES AND THERAPEUTIC USES THEREOF” (The Regents of the University of Colorado, a body corporate, priority 2010, published 2015)
